Like-named read-outs stand apart in the source and are kept apart here.
Assays:
mice = assay: acute toxicity in mice by oral administration; type: in vivo, mouse; settings: 10 mg/kg animal body weight, 5 cases
Description: Therefore, the compounds of the present invention may be considered to be sufficiently safe and suitable for medical use.

blood pressure = assay: hypotensive effect in the allobarbital anesthetized dog; type: in vivo; settings: for hypotensive side-effect: in words, in comparison with known compounds D, E, F and G; for Hypotensive effect (E1 = 1): relative to PGE1 taken as 1.00, allobarbital anesthetised dog; for Hypotensive effect (E1 = 1) / duration of fall in blood pressure / fall in blood pressure: i.v.; for duration of fall in blood pressure / fall in blood pressure: allobarbital anesthetized dog
Description: (ii) by intravenous administration to the allobarbital anesthetized dog, compound B produced falls in blood pressure of 13 and 31 mmHg lasting 17 and 37 minutes at the doses of 1 and 2 μg/kg animal body weight, respectively.
(§1) In the Table, the values of side-effects are indicated relative to the activity of PGE1, taken as 1.00.
^(2) By intravenous administration to the allobarbital anesthetised

[1] = test system: adenosine diphosphate-induced blood platelet aggregation; assay: inhibition of adenosine diphosphate-induced blood platelet aggregation in platelet rich plasma of rats; type: cell-based, rat; settings: for platelet aggregation inhibiting side-effect: in words, in comparison with known compounds D, E, F and G; for Platelet aggregation inhibition (E1 = 1): relative to PGE1 taken as 1.00, ADP-induced, platelet rich plasma of rats
Description: as §1
^(3) Inhibition of adenosine diphosphateinduced blood platelet
aggregation in plateletrich plasma of rats.

[2] = test system: D(+)-galactosamine-induced liver damage; assay: D(+)-galactosamine-induced liver damage in rats; type: in vivo; settings: D(+)-galactosamine 375 mg/kg i.p. twice, rat, 100 μg/kg oral five times, blood at 48 hrs, vs control
uterine contraction = uterine contraction in the pregnant female rat; type: in vivo; settings: 20th day of gestation, i.v., doses of 50 and 20 μg/kg (compound A and compound B)
[3] = test system: carbon tetrachloride-induced liver damage; assay: carbon tetrachloride-induced liver damage in rats (plasma GOT, GPT); type: in vivo, rat; settings: for cytoprotective activity compared with known compound H / cytoprotective activity: in words; for cytoprotective activity compared with known compound H: comparison with compound H; for cytoprotective activity: from the Table; for inhibition in vivo at 0.02 mg/kg / inhibition in vivo at 0.1 mg/kg / inhibition in vivo at 0.05 mg/kg / inhibition in vivo at 0.2 mg/kg: po, CCl4, rat, vs controls; for inhibition in vivo at 0.02 mg/kg: 20 μg/kg p.o.; for inhibition in vivo at 0.1 mg/kg: 100 μg/kg p.o.; for inhibition in vivo at 0.05 mg/kg: 50 μg/kg p.o.; for inhibition in vivo at 0.2 mg/kg: 200 μg/kg p.o.
Description: In the following Table, the pharmacological activities, i.e. carbon tetrachloride-induced cytodamage inhibition as an example of cytoprotective activity, and hypotensive and platelet aggregation inhibition activities as examples of side-effects, of known compounds are compared with those of compounds A, B and C of the invention.
^(1) The method used was that described in the specification of U.S.

[4] = test system: α-naphthylisothiocyanate-induced liver damage; assay: α-naphthylisothiocyanate-induced liver damage in rats; type: in vivo; settings: rat, 100 μg/kg oral, vs controls
[5] = read-out: inhibition of plasma GOT (glutamic oxaloacetic transaminase)
[6] = read-out: inhibition of plasma GPT (glutamic pyruvic transaminase)

| Structure (SMILES) | deaths in acute toxicity test (mice) | hypotensive side-effect (blood pressure) | Hypotensive effect (E1 = 1) (blood pressure) | platelet aggregation inhibiting side-effect [1] | Platelet aggregation inhibition (E1 = 1) [1] | cytoprotective activity compared with known compound H [3] | cytoprotective activity [3] | inhibition in vivo at 0.1 mg/kg [3, 5] | also measured |
| --- | --- | --- | --- | --- | --- | --- | --- | --- | --- |
| CCCCC1CC[C@H]([C@H](O)/C=C/[C@H]2[C@H](O)CC(=O)[C@@H]2CC(=O)CCCCCO)C1 (stereo partly drawn) [A, 2-decarboxy-2-hydroxymethyl-6-oxo-15-(3(RS)-butyl-1(S)-cyclopentyl)-16,17,18,19,20-pentanor-PGE1] | no deaths in 5 cases | very weak side-effects | 1.2 | very weak side-effects | 0.05 | superior in their cytoprotective activity to the known compound H | possess cytoprotective activity | 71.8% | inhibition of plasma GOT [2]: 20.4%; inhibition of plasma GPT [2]: 45.1%; inhibition of plasma bilirubin [2]: 36.2%; stimulation of uterine contraction (uterine contraction): stimulated uterine contraction; inhibition in vivo at 0.02 mg/kg [3, 5]: 56.6%; inhibition in vivo at 0.02 mg/kg [3, 6]: 58.8%; inhibition in vivo at 0.1 mg/kg [3, 6]: 53.6% |
| CCCC1CC[C@H]([C@H](O)/C=C/[C@H]2[C@H](O)CC(=O)[C@@H]2CC(=O)CCCCCO)C1 (stereo partly drawn) [B, 2-decarboxy-2-hydroxymethyl-6-oxo-15-(3(RS)-propyl-1(S)-cyclopentyl)-16,17,18,19,20-pentanor-PGE1] | two deaths in 5 cases | very weak side-effects | 0.35 | very weak side-effects | 0.05 | superior in their cytoprotective activity to the known compound H | possess cytoprotective activity | – | duration of fall in blood pressure (blood pressure; 1 μg/kg): 17 min; fall in blood pressure (blood pressure; 1 μg/kg): 13 mmHg; duration of fall in blood pressure (blood pressure; 2 μg/kg): 37 min; fall in blood pressure (blood pressure; 2 μg/kg): 31 mmHg; inhibition of plasma GOT [4]: 52.6%; inhibition of plasma GPT [4]: 62.5%; inhibition of plasma bilirubin [4]: 30.3%; inhibition of plasma GOT [2]: 40.0%; inhibition of plasma GPT [2]: 50.3%; inhibition of plasma bilirubin [2]: 44.2%; stimulation of uterine contraction (uterine contraction): stimulated uterine contraction; inhibition in vivo at 0.05 mg/kg [3, 5]: 29.6%; inhibition in vivo at 0.05 mg/kg [3, 6]: 21.5% |
| O=C(CCCCCO)C[C@H]1C(=O)C[C@@H](O)[C@@H]1/C=C/[C@@H](O)C1CCCC1 [C, 2-decarboxy-2-hydroxymethyl-6-oxo-15-cyclopentyl-16,17,18,19,20-pentanor-PGE1] | no deaths in 5 cases | very weak side-effects | 0.77 | very weak side-effects | – | superior in their cytoprotective activity to the known compound H | possess cytoprotective activity | – | inhibition in vivo at 0.2 mg/kg [3, 5]: 7.9%; inhibition in vivo at 0.2 mg/kg [3, 6]: 29.9% |
| CCCC1CCC([C@H](O)/C=C/[C@H]2[C@H](O)CC(=O)[C@@H]2CC(=O)CCCCC(=O)O)C1 (stereo partly shown) [D, 6Oxo-15-(3RS-propyl-1RS-cyclopentyl)-16,17,18,19,20-pentanor-PGE1, reference compound] | – | – | 13 | – | 48.4 | – | possess cytoprotective activity | – | – |
| CCCC1CCC([C@H](O)/C=C/[C@H]2[C@H](O)CC(=O)[C@@H]2CC(=O)CCCCC(=O)OC)C1 (stereo partly shown) [E, 6Oxo-15-(3RS-propyl-1RS-cyclopentyl)-16,17,18,19,20-pentanor-PGE1 methyl ester, reference compound] | – | – | 25.7 | – | 58.6 | – | possess cytoprotective activity | 77% | – |
| CCCCC1CCC([C@H](O)/C=C/[C@H]2[C@H](O)CC(=O)[C@@H]2CC(=O)CCCCC(=O)OC)C1 (stereo partly shown) [F, 6Oxo-15-(3RS-butyl-1RS-cyclopentyl)-16,17,18,19,20-pentanor-PGE1 methyl ester, reference compound] | – | – | 12.6 | – | 51.0 | – | possess cytoprotective activity | – | – |
| CCCC1CCC([C@H](O)/C=C/[C@H]2[C@H](O)CC(=O)[C@@H]2CC(=O)CCCCC(=O)OC)CC1 (stereo partly shown) [G, 6Oxo-15-(4RS-propyl-1RS-cyclohexyl)-16,17,18,19,20-pentanor-PGE1 methyl ester, reference compound] | – | – | 6.2 | – | 19.7 | – | possess cytoprotective activity | – | – |
| CCCCC[C@H](O)/C=C/[C@H]1[C@H](O)CC(=O)[C@@H]1CC(=O)CCCCCO [H, 2Decarboxy-2-hydroxymethyl-6-oxo-PGE1, reference compound] | – | – | – | – | – | – | – | 3.4% | inhibition in vivo at 0.1 mg/kg [3, 6]: -0.07% |

— patent US4473587A, “Prostaglandin E1 analogues” (Ono Pharmaceutical Co., Ltd., priority 1982, dated 1984)
